Read-outs that look alike come from different tables or passages of the source.
What was measured:
[1] = target: Mcl-1 (Homo sapiens, UniProt Q07820); test: fluorescence polarization (FP) assay, disruption of the Mcl-1/BH3 interaction; assay type: binding; details: for inhibition at 100 µM: read-out: % Inhibition Mcl-1
[2] = target: Bcl-XL (Homo sapiens, UniProt Q07817); test: fluorescence polarization (FP) assay, disruption of the Bcl-XL/BH3 interaction; assay type: binding; details: for inhibition at 100 µM: read-out: % Inhibition Bcl-XL; for inhibition at 50 µM: 50 μM acylsulfonamide, disruption of Bcl-XL/BH3 interaction in FP assay, read-out: Percentage Inhibition at 50 μM acylsulfonamide concentrations
Chain of Bcl-XL (Q07817 whole entry, the tested form may be a part): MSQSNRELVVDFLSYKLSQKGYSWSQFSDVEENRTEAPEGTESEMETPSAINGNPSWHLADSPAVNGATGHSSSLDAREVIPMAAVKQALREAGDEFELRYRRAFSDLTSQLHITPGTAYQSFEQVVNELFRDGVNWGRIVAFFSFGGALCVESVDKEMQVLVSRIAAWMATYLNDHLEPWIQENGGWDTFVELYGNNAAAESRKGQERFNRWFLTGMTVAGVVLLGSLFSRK

[3] = reactive fragments (SZ, TA), 100 μM per FIG. 22 legend, FP assay

Chain of Mcl-1 (Q07820 whole entry): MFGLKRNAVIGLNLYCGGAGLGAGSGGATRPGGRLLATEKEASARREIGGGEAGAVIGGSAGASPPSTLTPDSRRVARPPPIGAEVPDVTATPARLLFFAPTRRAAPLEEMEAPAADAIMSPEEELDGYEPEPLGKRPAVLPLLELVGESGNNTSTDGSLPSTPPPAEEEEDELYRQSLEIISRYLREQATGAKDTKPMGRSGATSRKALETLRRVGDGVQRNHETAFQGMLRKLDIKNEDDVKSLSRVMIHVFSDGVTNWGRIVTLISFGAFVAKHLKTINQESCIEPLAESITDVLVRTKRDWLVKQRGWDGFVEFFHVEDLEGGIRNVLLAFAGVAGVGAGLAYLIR

Row | Compound | inhibition at 100 µM [1, 3] | inhibition at 100 µM [2, 3] | inhibition at 50 µM [2] | further results
1 | CC(=O)Nc1ccc(S(=O)(=O)NC(=O)c2ccc(OC(F)(F)F)cc2)cc1 [SZ3TA8] |  |  | 0% | 
2 | Cc1ccc(S(=O)(=O)NC(=O)c2ccccc2)cc1 [SZ5TA1] |  |  | 29% | 
3 | Cc1ccccc1S(=O)(=O)N=[N+]=[N-] [SZ20] |  |  |  | % Inhibition Mcl-1 [1, 3]: 6.2 ± 2.1%; % Inhibition Bcl-XL [2, 3]: 1.4 ± 1.6%
4 | O=C(NS(=O)(=O)c1ccc(CN(CSc2ccccc2)Cc2ccc3c(c2)OCO3)cc1)c1ccc(OC(F)(F)F)cc1 [SZ31TA8] |  |  |  | selectivity index ([1]; calculated, Mcl-1 over Bcl-XL): 19
5 | O=C(NS(=O)(=O)c1ccc(CN(CCSc2ccccc2)Cc2c(F)cccc2Cl)cc1)c1ccccc1 [SZ15TA1] |  |  |  | fold less active than SZ31TA2 ([1]; Mcl-1 PPIM activity relative to SZ31TA2): approximately 10 fold
6 | CC(=O)Nc1ccc(S(=O)(=O)NC(=O)c2ccccc2)cc1 [SZ3TA1] |  |  | 0% | 
7 | [N-]=[N+]=NS(=O)(=O)CCN1CCCC2CCCCC21 (stereo not shown) [SZ22] | 1.2 ± 1.2% | < 1% |  | 
8 | [N-]=[N+]=NS(=O)(=O)c1ccc(NCCSc2ccccc2)c([N+](=O)[O-])c1 [SZ4] |  |  |  | inhibition at 100 µM [1]: 23.4 ± 14.9%; inhibition at 100 µM [2]: < 1%
9 | [N-]=[N+]=NS(=O)(=O)c1ccc(-c2ccc(C(F)(F)F)cc2)cc1 [SZ16B] | 1.3 ± 2.4% | 1.1 ± 1.2% |  | 
10 | CC(=O)Nc1ccc(S(=O)(=O)NC(=O)c2cccc3ccccc23)cc1 [SZ3TA7] |  |  | 0% | 
11 | CC1(C)CCN(c2ccc(C(=O)NS(=O)(=O)c3ccc(CN(CCSc4ccccc4)Cc4ccc(S(=O)(=O)N=[N+]=[N-])cc4)cc3)cc2)CC1 [SZ9TA2] |  |  | 38% | 
12 | [N-]=[N+]=NS(=O)(=O)c1ccc(COc2ccccc2[N+](=O)[O-])cc1 [SZ13] |  |  |  | % Inhibition Mcl-1 [1, 3]: <1%; % Inhibition Bcl-XL [2, 3]: 3.8 ± 4.1%
13 | CC1(C)CCN(c2ccc(C(=O)NS(=O)(=O)c3ccc(NCCSc4ccccc4)c([N+](=O)[O-])c3)cc2)CC1 [SZ4TA2] |  |  | 100% | IC50 against Bcl-XL (in words) [2]: in the nM range
14 | Cc1nc(-c2ccccc2)sc1C(=O)NS(=O)(=O)c1ccc(CN(CCSc2ccccc2)Cc2ccc(S(=O)(=O)N=[N+]=[N-])cc2)cc1 [SZ9TA3] |  |  | 22% | 
15 | CC(=O)Nc1ccc(S(=O)(=O)NC(=O)c2ccco2)cc1 [SZ3TA9] |  |  | 0% | 
16 | Cc1ccc(-c2ccc(C(=O)O)cc2)cc1 [SK_2_170] | 6.8 ± 1.3% | 7 ± 13% |  | 
17 | [N-]=[N+]=NS(=O)(=O)c1ccc(NCc2ccc(Br)cc2)cc1 [SZ29] |  |  |  | inhibition at 100 µM [1]: 5.7 ± 4.6%; inhibition at 100 µM [2]: < 1%

Row | Compound | inhibition at 100 µM [1, 3] | inhibition at 100 µM [2, 3] | inhibition at 50 µM [2] | further results
18 | CC1(C)CCN(c2ccc(C(=O)O)cc2)CC1 [TA2] | 6.8 ± 6.7% | < 1% |  | 
19 | O=C(NS(=O)(=O)c1ccc(NCCSc2ccccc2)c([N+](=O)[O-])c1)c1ccccc1 [SZ4TA1] |  |  | 14% | 
20 | Cc1nc(-c2ccccc2)sc1C(=O)NS(=O)(=O)c1ccc(CN(C)CCc2ccccc2)cc1 [SZ2TA3] |  |  | 7% | 
21 | CC1(C)CCN(c2ccc(C(=O)NS(=O)(=O)c3ccc(CN(CSc4ccccc4)Cc4ccc5c(c4)OCO5)cc3)cc2)CC1 [SZ31TA2] |  |  |  | IC50 ([1]; FP assay, read-out: IC50 against Mcl-1): 3.3 µM; ligand efficiency ([1]; against Mcl-1): 0.159
22 | Cc1nc(-c2ccccc2)sc1C(=O)NS(=O)(=O)c1ccc(CN2CCN(c3ccccc3)CC2)cc1 [SZ1TA3] |  |  | 6% | 
23 | CC1(C)CCN(c2ccc(C(=O)NS(=O)(=O)c3ccc4ccc(S(=O)(=O)NCCSc5ccccc5)cc4c3)cc2)CC1 [SZ7TA2] |  |  | 76% | 
24 | CN(CCc1ccccc1)Cc1ccc(S(=O)(=O)NC(=O)c2ccccc2)cc1 [SZ2TA1] |  |  | 2% | 
25 | [N-]=[N+]=NS(=O)(=O)c1ccc(CN(CCSc2ccccc2)Cc2ccc(S(=O)(=O)NC(=O)c3ccccc3)cc2)cc1 [SZ9TA1] |  |  | 80% | 
26 | Cc1ccc(S(=O)(=O)N=[N+]=[N-])cc1 [SZ5] |  |  |  | % Inhibition Mcl-1 [1, 3]: 1.2 ± 7.9%; % Inhibition Bcl-XL [2, 3]: 2.3 ± 1.1%
27 | COc1cc(OC)cc(C(=O)NS(=O)(=O)c2ccc(CN(CCSc3ccccc3)Cc3ccc(S(=O)(=O)N=[N+]=[N-])cc3)cc2)c1 [SZ9TA5] |  |  | 60% | 
28 | COc1cc2c(cc1OC)C(c1ccccc1)N(CC(=O)NS(=O)(=O)c1ccc(CN(C)CCc3ccccc3)cc1)CC2 (stereo not shown) [SZ2TA4] |  |  | 25% | 
29 | [N-]=[N+]=NS(=O)(=O)c1ccc(CN(CCSc2ccccc2)Cc2ccc(S(=O)(=O)N=[N+]=[N-])cc2)cc1 [SZ9] |  |  |  | inhibition at 100 µM [1]: 13 ± 1.4%; inhibition at 100 µM [2]: 4.7 ± 4%
30 | [N-]=[N+]=NS(=O)(=O)c1ccc(Cl)cc1 [SZ18] |  |  |  | % Inhibition Mcl-1 [1, 3]: <1%; % Inhibition Bcl-XL [2, 3]: <1%
31 | CN(CCc1ccccc1)Cc1ccc(S(=O)(=O)NC(=O)c2ccc(N3CCC(C)(C)CC3)cc2)cc1 [SZ2TA2] |  |  | 9% | 
32 | CC(=O)Nc1ccc(S(=O)(=O)NC(=O)c2cccc([N+](=O)[O-])c2)cc1 [SZ3TA6] |  |  | 0% | 
33 | COc1ccc(S(=O)(=O)N=[N+]=[N-])cc1 [SZ19] |  |  |  | % Inhibition Mcl-1 [1, 3]: <1%; % Inhibition Bcl-XL [2, 3]: <1%
34 | Cc1ccc(S(=O)(=O)NC(=O)c2ccc(N3CCC(C)(C)CC3)cc2)cc1 [SZ5TA2] |  |  | 28% | 

Further lines, with some results ahead:

Row | inhibition at 100 µM [1, 3] | inhibition at 100 µM [2, 3] | inhibition at 50 µM [2] | Compound | further results
35 | < 1% | < 1% |  | [N-]=[N+]=NS(=O)(=O)CCN1CCN(Cc2ccc3c(c2)OCO3)CC1 [SZ25] | 
36 | 1.3 ± 13.4% | < 1% |  | COc1cc(OC)cc(C(=O)O)c1 [TA5] | 
37 | 1.4 ± 3.6% | < 1% |  | Cc1nc(-c2ccccc2)sc1C(=O)O [TA3] | 
38 | < 1% | 6.7 ± 4.5% |  | CC(=O)Nc1ccc(S(=O)(=O)N=[N+]=[N-])cc1 [SZ3] | 
39 | 1.5 ± 0.7% | < 1% |  | COc1cc2c(cc1OC)C(c1ccccc1)N(CC(=O)O)CC2 (stereo not shown) [TA4] | 
40 | 2.7 ± 7.5% | < 1% |  | [N-]=[N+]=NS(=O)(=O)CCN1CCC(Cc2ccccc2)CC1 [SZ24] | 
41 | < 1% | < 1% |  | CCN(CC)c1ccc(CNc2ccc(S(=O)(=O)N=[N+]=[N-])cc2)cc1 [SZ30] | 
42 | < 1% | < 1% |  | [N-]=[N+]=NS(=O)(=O)c1ccc(CN(CCSc2ccccc2)Cc2ccc3c(c2)OCO3)cc1 [SZ31] | 
43 | < 1% | < 1% |  | [N-]=[N+]=NS(=O)(=O)CCN(Cc1ccccc1)Cc1ccccc1 [SZ26] | 
44 | 25.1 ± 0.7% | 10 ± 0.9% |  | [N-]=[N+]=NS(=O)(=O)c1ccc(CN(CCSc2ccccc2)Cc2c(F)cccc2Cl)cc1 [SZ15] | 
45 | 13.9 ± 0.05% | 4 ± 0.1% |  | COc1cc2c(cc1OC)C(c1ccccc1)N(CCS(=O)(=O)N=[N+]=[N-])CC2 (stereo not shown) [SZ27] | 
46 | 49.3 ± 3.3% | 1.1% |  | CN(C)c1cccc2c(S(=O)(=O)N=[N+]=[N-])cccc12 [SZ21] | 
47 | < 1% | 2.2 ± 0.7% |  | CC(C)(C)c1ccc(-c2ccc(S(=O)(=O)N=[N+]=[N-])cc2)cc1 [SZ8] | 
48 | 3.6 ± 5.2% | 3.3 ± 2.1% |  | [N-]=[N+]=NS(=O)(=O)CCN1CCc2ccccc2C1 [SZ23] | 
49 | 2.4 ± 6.8% | < 1% |  | O=C(O)c1cccc2ccccc12 [TA7] | 
50 | 2.1 ± 3.3% | 7.9 ± 5.8% |  | [N-]=[N+]=NS(=O)(=O)c1ccc(COc2ccc3c(=O)cc(-c4ccccc4)oc3c2)cc1 [SZ14] | 
51 | < 1% | 2 ± 1.7% |  | O=C(O)c1ccno1 [TA10] | 
52 | 3.4 ± 0.2% | 4.6 ± 4.7% |  | [N-]=[N+]=NS(=O)(=O)c1ccc2ccc(S(=O)(=O)NCCSc3ccccc3)cc2c1 [SZ6] | 
53 | < 1% | < 1% |  | [N-]=[N+]=NS(=O)(=O)CCN(CCSc1ccccc1)Cc1ccc2c(c1)OCO2 [SZ28] | 
54 | < 1% | < 1% |  | O=C(O)c1ccco1 [TA9] | 
55 | < 1% | < 1% |  | COc1cc2c(cc1OC)C(c1ccccc1)N(Cc1ccc(S(=O)(=O)N=[N+]=[N-])cc1)CC2 (stereo not shown) [SZ11] | 
56 | 3.6 ± 12.7% | 4 ± 1.2% |  | O=C(O)c1ccc(OC(F)(F)F)cc1 [TA8] | 
57 | 4 ± 1.6% | 2.6 ± 7.8% |  | COc1cccc(CN(CCSc2ccccc2)Cc2ccc(S(=O)(=O)N=[N+]=[N-])cc2)c1 [SZ17] | 
58 | < 1% | 1.9 ± 3.8% |  | [N-]=[N+]=NS(=O)(=O)c1ccc(CN(CCSc2ccccc2)Cc2ccc(S(N)(=O)=O)cc2)cc1 [SZ10] | 
59 | < 1% | < 1% |  | [N-]=[N+]=NS(=O)(=O)c1ccc(CNc2cccc([N+](=O)[O-])c2)cc1 [SZ12] | 
60 | < 1% | < 1% |  | O=C(O)c1cccc([N+](=O)[O-])c1 [TA6] | 

— US20130203709A1, “ACYLSULFONAMIDES AND PROCESSES FOR PRODUCING THE SAME” (priority 2010, published 2013)
